Assay results reported in patent US20100048611A1, “TETRAHYDROPYRROLOPYRIDINE, TETRAHYDROPYRAZOLOPYRIDINE, TETRAHYDRO-IMIDAZOPYRIDINE AND TETRAHYDROTRIAZOLOPYRIDINE DERIVATIVES AND USE THEREOF” (Bayer Healthcare AG, priority 2006, published 2010).
pIC50: −log10 of the molar value.

Target: human factor Xa (FXa) (Homo sapiens, UniProt P00742)
Experiment: Determination of the factor Xa inhibition (chromogenic substrate)
Format: biochemical
Conditions: chromogenic substrate Pefachrome FXa, 25° C., extinction at 405 nm
Description: a.1) Determination of the Factor Xa Inhibition:
The enzymatic activity of human factor Xa (FXa) is measured using the conversion of a chromogenic substrate specific for FXa. Factor Xa cleaves p-nitroaniline from the chromogenic substrate. The determinations are carried out in microtitre plates as follows:
The test substances, in various concentrations, are dissolved in DMSO and incubated for 10 minutes at 25° C. with human FXa ([…] dissolved in 50 mmol of Tris buffer [C,C,C-tris(hydroxymethyl)aminomethane], 150 mmol/l of NaCl, 0.1% BSA [bovine serum albumin], pH=8.3). Pure DMSO is used as control. The chromogenic substrate (150 μmol/l of Pefachrome® FXa from Pentapharm) is then added. After an incubation time of 20 minutes at 25° C., the extinction at 405 nm is determined.

Sequence of human factor Xa (FXa) (P00742 235-488 limits assumed): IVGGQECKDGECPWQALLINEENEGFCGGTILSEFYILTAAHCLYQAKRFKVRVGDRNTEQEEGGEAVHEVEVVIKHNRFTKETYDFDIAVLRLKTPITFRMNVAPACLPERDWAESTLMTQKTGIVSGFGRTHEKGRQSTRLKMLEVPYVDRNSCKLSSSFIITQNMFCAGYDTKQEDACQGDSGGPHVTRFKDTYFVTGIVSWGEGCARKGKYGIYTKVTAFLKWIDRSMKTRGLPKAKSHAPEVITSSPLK
Sequence of human factor Xa (FXa) (P00742 41-179 partner limits assumed): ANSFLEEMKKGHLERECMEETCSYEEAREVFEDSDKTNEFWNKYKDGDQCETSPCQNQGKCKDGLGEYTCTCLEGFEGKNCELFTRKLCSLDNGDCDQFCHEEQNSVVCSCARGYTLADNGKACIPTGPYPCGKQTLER

COc1ccc(-n2nc(C(N)=O)c3c2C(=O)N(c2ccc(N4CCOC4=N)cc2)CC3)cc1 [Example 1, 6-[4-(2-Imino-1,3-oxazolidin-3-yl)phenyl]-1-(4-methoxyphenyl)-7-oxo-4,5,6,7-tetrahydro-1H-pyrazolo[3,4-c]pyridine-3-carboxamide methanesulphonate]
pIC50: 9.10
